# According to patent US10603345B2, “Pharmaceutical composition for treating respiratory disease” (Kunming Institute of Botany, The Chinese Academy of Sciences, priority 2015, dated 2020):
# Assays:
# Format in all cases: in vivo
# MDA in LPS-induced rat = assay: Effect on MDA in LPS-induced rat; conditions: ig 7 d, dose/kg: DXM 1.5 mg, Test group 1 30 mg, 2 15 mg, 3 7.5 mg, x ± S
# Description: Group and dose: in Test group 1 and Test group 2, the ratio of picrinine, vallesamine, scholaricine and 19-epischolaricine by weight was 45:6:28:3 and 17:14:9:4, respectively, and the other groups and doses thereof were as described in Example 9.
# Test index: MDA in bronchoalveolar lavage fluid (BALF), serum, and homogenate was used as index.
# ALB in LPS-induced rat = assay: Effect on ALB in LPS-induced rat; conditions: ig 7 d, dose/kg: DXM 1.5 mg, Test group 1 30 mg, 2 15 mg, 3 7.5 mg
# Description: (§1) Animal source: 190˜220 g male SD rat, from laboratory animal department of Kunming Medical University, License No. SCXK (Dian) 2011-0004.
# (§2) Method and route: lipopolysaccharide (LPS) was used to induce a rat airway inflammation model; after intragastrical administration for 7 d at a dose of 10 mL/kg, the animal was sacrificed at the eighth day.
# (§3) Sample preparation: all the samples were prepared by using 0.5% carboxymethylcellulose sodium (0.5% CMC-Na).
# Group and dose: in Test group 1 and Test group 2, the ratio of picrinine, vallesamine, scholaricine and 19-epischolaricine by weight was 36:38:7:1 and 16:15:14:5, respectively, and the other groups and doses thereof were as described in Example 9.
# Test index: ALB in bronchoalveolar lavage fluid (BALF), and serum was used as index.
# NO in LPS-induced rat = assay: Effect on NO in LPS-induced rat; conditions: ig 7 d, dose/kg: DXM 1.5 mg, Test group 1 30 mg, 2 15 mg, 3 7.5 mg, x ± S
# Description: as §1, §2, §3
# Group and dose: in Test group 1 and Test group 2, the ratio of picrinine, vallesamine, scholaricine and 19-epischolaricine by weight was 40:30:28:2 and 15:18:26:7, respectively, and the other groups and doses thereof were as described in Example 9.
# Test index: NO in bronchoalveolar lavage fluid (BALF), serum, and homogenate was used as index.
# TNF-α in LPS-induced rat = assay: Effect on TNF-α in LPS-induced rat; conditions: ig 7 d, dose/kg: DXM 1.5 mg, Test group 1 30 mg, 2 15 mg, 3 7.5 mg, x ± S
# Description: as §1, §2, §3
# Group and dose: in Test group 1 and Test group 2, the ratio of picrinine, vallesamine, scholaricine and 19-epischolaricine by weight was, 45:36:7:10 and 10:18:9:2, respectively, and the other groups and doses thereof were as described in Example 9.
# Test index: TNF-α in bronchoalveolar lavage fluid (BALF), serum, and homogenate was used as index.
# LDH in LPS-induced rat = assay: Effect on LDH in LPS-induced rat; conditions: ig 7 d, dose/kg: DXM 1.5 mg, Test group 1 30 mg, 2 15 mg, 3 7.5 mg
# Description: as §1, §2, §3
# Group and dose: in Test group 1 and Test group 2, the ratio of picrinine, vallesamine, scholaricine and 19-epischolaricine by weight was 10:28:15:8 and 10:7:7:2, respectively, and the other groups and doses thereof were as described in Example 9.
# Test index: LDH in bronchoalveolar lavage fluid (BALF), and serum was used as index.
# IL-8 in LPS-induced rat = assay: Effect on IL-8 in LPS-induced rat; conditions: ig 7 d, dose/kg: DXM 1.5 mg, Test group 1 30 mg, 2 15 mg, 3 7.5 mg, x ± S
# Description: as §1, §2, §3
# Group and dose: in Test group 1 and Test group 2, the ratio of picrinine, vallesamine, scholaricine and 19-epischolaricine by weight was 48:10:30:9 and 12:14:15:6, respectively, and the other groups and doses thereof were as described in Example 9.
# Test index: IL-8 in bronchoalveolar lavage fluid (BALF), serum, and homogenate was used as index.
# [1] = tested on: inflammatory cell in LPS-induced rat; assay: Effect on inflammatory cell and classification in BALF of LPS-induced rat; conditions: ig 7 d, dose/kg: DXM 1.5 mg, Test group 1 30 mg, 2 15 mg, 3 7.5 mg, x ± S
# Description: as §1, §2, §3
# Group and dose: in Test group 1 and Test group 2, the ratio of picrinine, vallesamine, scholaricine and 19-epischolaricine by weight was 43:16:30:8 and 20:38:30:7, respectively, and the other groups and doses thereof were as described in Example 9.
# Test index: Total number of white blood cells (WBCs) and inflammatory cell classification in bronchoalveolar lavage fluid (BALF) were used as indexes.
# SOD in LPS-induced rat = assay: Effect on SOD in LPS-induced rat; conditions: ig 7 d, dose/kg: DXM 1.5 mg, Test group 1 30 mg, 2 15 mg, 3 7.5 mg, x ± S
# Description: as §1, §2, §3
# Group and dose: in Test group 1 and Test group 2, the ratio of picrinine, vallesamine, scholaricine and 19-epischolaricine by weight was 8:45:29:9 and 20:14:12:7, respectively, and the other groups and doses thereof were as described in Example 9.
# Test index: SOD in bronchoalveolar lavage fluid (BALF), serum, and homogenate was used as index.
# AKP in LPS-induced rat = assay: Effect on AKP in LPS-induced rat; conditions: ig 7 d, dose/kg: DXM 1.5 mg, Test group 1 30 mg, 2 15 mg, 3 7.5 mg
# Description: as §1, §2, §3
# Group and dose: in Test group 1 and Test group 2, the ratio of picrinine, vallesamine, scholaricine and 19-epischolaricine by weight was 8:25:30:9 and 12:10:9:2, respectively, and the other groups and doses thereof were as described in Example 9.
# Test index: AKP in bronchoalveolar lavage fluid (BALF), and serum was used as index.
compound,measurement,setting,value
"C[C@@H]1C[C@H]2[C@@H]3CCC4=CC(=O)C=C[C@]4(C)[C@@]3(F)[C@@H](O)C[C@]2(C)[C@@]1(O)C(=O)CO [DXM, dexamethasone]",MDA lung tissue,MDA in LPS-induced rat; lung tissue homogenate,1.61 ± 0.71 nmol/mL
same,MDA Serum,MDA in LPS-induced rat; serum,4.21 ± 1.49 nmol/mL
same,ALB BALF,ALB in LPS-induced rat; BALF,0.18 ± 0.07 g/L
same,ALB Serum,ALB in LPS-induced rat; serum,19.4 ± 1.4 g/L
same,NO BALF,NO in LPS-induced rat; BALF,13.52 ± 4.17 µmol/L
same,NO Lung tissue,NO in LPS-induced rat; lung tissue homogenate,18.35 ± 5.30 µmol/L
same,NO Serum,NO in LPS-induced rat; serum,27.20 ± 7.67 µmol/L
same,TNF-a BALF,TNF-α in LPS-induced rat; BALF,11.28 ± 4.51 pg/mL
same,TNF-a lung tissue,TNF-α in LPS-induced rat; lung tissue homogenate,152.11 ± 37.64 pg/mL
same,TNF-a Serum,TNF-α in LPS-induced rat; serum,5.11 ± 1.67 pg/mL
same,LDH BALF,LDH in LPS-induced rat; BALF,96.7 ± 25.6 U/L
same,LDH Serum,LDH in LPS-induced rat; serum,386.5 ± 92.7 U/L
same,IL-8 BALF,IL-8 in LPS-induced rat; BALF,24.62 ± 12.42 pg/mL
same,IL-8 lung tissue,IL-8 in LPS-induced rat; lung tissue homogenate,60.62 ± 20.11 pg/mL
same,IL-8 serum,IL-8 in LPS-induced rat; serum,29.62 ± 12.13 pg/mL
same,BALF cell classification AM (alveolar macrophage),[1],52.5 ± 7.0 %
same,BALF cell classification L (lymphocyte),[1],9.3 ± 5.0^ %
same,BALF cell classification M (monocyte),[1],28.9 ± 6.20 %
same,BALF cell classification N (neutrophil),[1],8.2 ± 2.9 %
same,WBC,[1],3.35 ± 1.89 × 10^5/ml
same,SOD BALF,SOD in LPS-induced rat; BALF,63.35 ± 13.45 U/mL
same,SOD Lung tissue,SOD in LPS-induced rat; lung tissue homogenate,92.25 ± 8.88 U/mL
same,SOD Serum,SOD in LPS-induced rat; serum,307.6 ± 97.7 U/mL
same,AKP BALF,AKP in LPS-induced rat; BALF,29.0 ± 5.9 U/L
same,AKP Serum,AKP in LPS-induced rat; serum,116.1 ± 36.0 U/L
